Assay results: US10584117B2, “1,3,4-oxadiazole amide derivative compound as histone deacetylase 6 inhibitor, and pharmaceutical composition containing same” (Chong Kun Dang Pharmaceutical Corp., priority 2015, dated 2020)
pIC50: −log10 of the molar value.

Biological target: T1, human recombinant HDAC6 (Homo sapiens, UniProt Q9UBN7)
T1 construct: purchased Calbiochem 382180
T1 sequence (Q9UBN7 1-1215): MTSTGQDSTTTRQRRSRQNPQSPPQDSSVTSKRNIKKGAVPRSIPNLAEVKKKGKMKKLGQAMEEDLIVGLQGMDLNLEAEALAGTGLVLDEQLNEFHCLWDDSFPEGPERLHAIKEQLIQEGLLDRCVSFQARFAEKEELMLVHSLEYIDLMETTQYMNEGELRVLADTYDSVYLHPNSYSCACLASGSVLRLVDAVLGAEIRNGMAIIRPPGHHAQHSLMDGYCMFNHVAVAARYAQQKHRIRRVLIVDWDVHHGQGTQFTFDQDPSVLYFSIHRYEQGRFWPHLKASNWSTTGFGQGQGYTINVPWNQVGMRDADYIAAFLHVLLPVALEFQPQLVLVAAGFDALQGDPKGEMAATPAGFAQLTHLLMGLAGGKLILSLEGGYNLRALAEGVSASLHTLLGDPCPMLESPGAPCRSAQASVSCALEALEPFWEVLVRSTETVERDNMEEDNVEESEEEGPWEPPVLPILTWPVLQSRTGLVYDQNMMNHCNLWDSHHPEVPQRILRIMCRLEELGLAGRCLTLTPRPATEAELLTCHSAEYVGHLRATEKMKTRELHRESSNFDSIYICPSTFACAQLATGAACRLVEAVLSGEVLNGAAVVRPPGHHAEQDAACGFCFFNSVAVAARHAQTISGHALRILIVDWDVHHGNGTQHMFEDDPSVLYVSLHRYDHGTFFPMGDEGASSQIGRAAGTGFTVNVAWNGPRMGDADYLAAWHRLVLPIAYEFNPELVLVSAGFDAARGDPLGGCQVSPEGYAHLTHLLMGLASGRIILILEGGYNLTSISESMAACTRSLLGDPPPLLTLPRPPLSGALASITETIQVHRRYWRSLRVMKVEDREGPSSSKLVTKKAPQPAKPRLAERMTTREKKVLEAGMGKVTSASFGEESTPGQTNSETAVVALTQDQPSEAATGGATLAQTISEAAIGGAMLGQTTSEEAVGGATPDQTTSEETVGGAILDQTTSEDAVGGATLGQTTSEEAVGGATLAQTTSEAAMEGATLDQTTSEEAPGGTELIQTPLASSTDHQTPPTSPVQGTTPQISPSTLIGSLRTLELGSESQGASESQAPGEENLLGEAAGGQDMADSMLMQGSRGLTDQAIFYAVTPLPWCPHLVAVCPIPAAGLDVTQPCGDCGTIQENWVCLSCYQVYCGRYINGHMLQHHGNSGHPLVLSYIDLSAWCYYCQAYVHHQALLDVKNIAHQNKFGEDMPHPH
Assay: HDAC enzyme activity inhibition assay (HDAC6, fluorimetric kit)
Format: biochemical
Details: for HDAC6 selectivity (fold): HDAC6 versus HDAC1; for pIC50: same protocol as the HDAC1 test
Method: In order to examine the HDAC6 selectivity of the compounds of formula I of the present invention by HDAC1 and HDAC6 enzymatic activity inhibition assays, an experiment was performed using a conventional substance as a control. HDAC enzyme activity was measured using a HDAC Fluorimetric Drug Discovery Kit (BML-AK511, 516) from Enzo Life Science. For the HDAC1 enzyme activity test, human recombinant HDAC1 (BML-SE456) was used as an enzyme source, and Fluor de Lys®-“SIRT1 (BNL-KI177) was used as a substrate. A 5-fold dilution of the compound was seeded into a 96-well plate, and then 0.3 μg of the enzyme and 10 μM of the substrate were added to each well of the plate and allowed to react at 30° C. for 60 minutes. Then, Fluor de Lys®-Developer II (BML-KI176) was added thereto and allowed to react for 30 minutes, after which the fluorescence value (Ex 360, Em 460) was measured using a multi-plate reader (Flexstation 3, Molecular Device). The HDAC6 enzyme was tested using human recombinant HDAC6 (382180) from Calbiochem, according to the same protocol as the HDAC1 enzyme activity test method. Based on the resulting values, each IC50 value was calculated using GraphPad Prism4.0 program.

HDAC6 selectivity (fold)	pIC50	SMILES
1923	7.28	CN1CC(C(=O)N(Cc2ccc(-c3nnc(C(F)(F)F)o3)cc2F)c2ccccc2)C1 [Compound 11232, N-(2-fluoro-4-(5-(trifluoromethyl)-1,3,4-oxadiazol-2-yl)benzyl)-1-methyl-N-phenylazetidine-3-carboxamide]
2703	7.43	CCN1CC(C(=O)N(Cc2ccc(-c3nnc(C(F)(F)F)o3)cc2F)c2ccccc2)C1 [Compound 11233, 1-ethyl-N-(2-fluoro-4-(5-(trifluoromethyl)-1,3,4-oxadiazol-2-yl)benzyl)-N-phenylazetidine-3-carboxamide]
1754	7.24	CC(=O)N1CC(C(=O)N(Cc2ccc(-c3nnc(C(F)(F)F)o3)cc2F)c2ccccc2)C1 [Compound 11234, 1-acetyl-N-(2-fluoro-4-(5-(trifluoromethyl)-1,3,4-oxadiazol-2-yl)benzyl)-N-phenylazetidine-3-carboxamide]
1538	7.19	CCC(=O)N1CC(C(=O)N(Cc2ccc(-c3nnc(C(F)(F)F)o3)cc2F)c2ccccc2)C1 [Compound 11235, N-(2-fluoro-4-(5-(trifluoromethyl)-1,3,4-oxadiazol-2-yl)benzyl)-N-phenyl-1-propionylazetidine-3-carboxamide]
1370	7.14	CC(C)C(=O)N1CC(C(=O)N(Cc2ccc(-c3nnc(C(F)(F)F)o3)cc2F)c2ccccc2)C1 [Compound 11236, N-(2-fluoro-4-(5-(trifluoromethyl)-1,3,4-oxadiazol-2-yl)benzyl)-1-isobutyryl-N-phenylazetidine-3-carboxamide]
2381	7.38	CS(=O)(=O)N1CC(C(=O)N(Cc2ccc(-c3nnc(C(F)(F)F)o3)cc2F)c2ccccc2)C1 [Compound 11237, N-(2-fluoro-4-(5-(trifluoromethyl)-1,3,4-oxadiazol-2-yl)benzyl)-1-(methanesulfonyl)-N-phenylazetidine-3-carboxamide]
2222	7.35	CN1CC(C(=O)N(Cc2ccc(-c3nnc(C(F)F)o3)cc2F)c2ccccc2)C1 [Compound 11238, N-(4-(5-(difluoromethyl)-1,3,4-oxadiazol-2-yl)-2-fluorobenzyl)-1-methyl-N-phenylazetidine-3-carboxamide]
3846	7.59	CCN1CC(C(=O)N(Cc2ccc(-c3nnc(C(F)F)o3)cc2F)c2ccccc2)C1 [Compound 11239, N-(4-(5-(difluoromethyl)-1,3,4-oxadiazol-2-yl)-2-fluorobenzyl)-1-ethyl-N-phenylazetidine-3-carboxamide]
2439	7.39	CC(C)N1CC(C(=O)N(Cc2ccc(-c3nnc(C(F)F)o3)cc2F)c2ccccc2)C1 [Compound 11240, N-(4-(5-(difluoromethyl)-1,3,4-oxadiazol-2-yl)-2-fluorobenzyl)-1-isopropyl-N-phenylazetidine-3-carboxamide]
2857	7.46	CC(=O)N1CC(C(=O)N(Cc2ccc(-c3nnc(C(F)F)o3)cc2F)c2ccccc2)C1 [Compound 11241, 1-acetyl-N-(4-(5-(difluoromethyl)-1,3,4-oxadiazol-2-yl)-2-fluorobenzyl)-N-phenylazetidine-3-carboxamide]
2564	7.41	CCC(=O)N1CC(C(=O)N(Cc2ccc(-c3nnc(C(F)F)o3)cc2F)c2ccccc2)C1 [Compound 11242, N-(4-(5-(difluoromethyl)-1,3,4-oxadiazol-2-yl)-2-fluorobenzyl)-N-phenyl-1-propionylazetidine-3-carboxamide]
3125	7.49	CC(C)C(=O)N1CC(C(=O)N(Cc2ccc(-c3nnc(C(F)F)o3)cc2F)c2ccccc2)C1 [Compound 11243, N-(4-(5-(difluoromethyl)-1,3,4-oxadiazol-2-yl)-2-fluorobenzyl)-1-isobutyryl-N-phenylazetidine-3-carboxamide]
1587	7.20	O=C(C1CN(C(=O)C(F)(F)F)C1)N(Cc1ccc(-c2nnc(C(F)F)o2)cc1F)c1ccccc1 [Compound 11244, N-(4-(5-(difluoromethyl)-1,3,4-oxadiazol-2-yl)-2-fluorobenzyl)-N-phenyl-1-(2,2,2-trifluoroacetyl)azetidine-3-carboxamide]
2128	7.33	CS(=O)(=O)N1CC(C(=O)N(Cc2ccc(-c3nnc(C(F)F)o3)cc2F)c2ccccc2)C1 [Compound 11245, N-(4-(5-(difluoromethyl)-1,3,4-oxadiazol-2-yl)-2-fluorobenzyl)-1-(methylsulfonyl)-N-phenylazetidine-3-carboxamide]
758	6.88	CC(=O)N(Cc1ccc(-c2nnc(C(F)(F)F)o2)cc1F)c1ccccc1 [Compound 11246, N-(2-fluoro-4-(5-(trifluoromethyl)-1,3,4-oxadiazol-2-yl)benzyl)-N-phenylacetamide]
1887	7.28	CC(=O)N(Cc1ccc(-c2nnc(C(F)F)o2)cc1F)c1ccccc1 [Compound 11247, N-(4-(5-(difluoromethyl)-1,3,4-oxadiazol-2-yl)-2-fluorobenzyl)-N-phenylacetamide]
1111	7.05	CN1CC(C(=O)N(Cc2ccc(-c3nnc(C(F)F)o3)cc2F)c2cccc(F)c2)C1 [Compound 11325, N-(4-(5-(difluoromethyl)-1,3,4-oxadiazol-2-yl)-2-fluorobenzyl)-N-(3-fluorophenyl)-1-methylazetidine-3-carboxamide]
1754	7.24	CCN1CC(C(=O)N(Cc2ccc(-c3nnc(C(F)F)o3)cc2F)c2cccc(F)c2)C1 [Compound 11326, N-(4-(5-(difluoromethyl)-1,3,4-oxadiazol-2-yl)-2-fluorobenzyl)-1-ethyl-N-(3-fluorophenyl)azetidine-3-carboxamide]
2041	7.31	CCCN1CC(C(=O)N(Cc2ccc(-c3nnc(C(F)F)o3)cc2F)c2cccc(F)c2)C1 [Compound 11327, N-(4-(5-(difluoromethyl)-1,3,4-oxadiazol-2-yl)-2-fluorobenzyl)-N-(3-fluorophenyl)-1-propylazetidine-3-carboxamide]
1235	7.09	CCCCN1CC(C(=O)N(Cc2ccc(-c3nnc(C(F)F)o3)cc2F)c2cccc(F)c2)C1 [Compound 11328, 1-butyl-N-(4-(5-(difluoromethyl)-1,3,4-oxadiazol-2-yl)-2-fluorobenzyl)-N-(3-fluorophenyl)azetidine-3-carboxamide]
1786	7.25	CC(C)N1CC(C(=O)N(Cc2ccc(-c3nnc(C(F)F)o3)cc2F)c2cccc(F)c2)C1 [Compound 11329, N-(4-(5-(difluoromethyl)-1,3,4-oxadiazol-2-yl)-2-fluorobenzyl)-N-(3-fluorophenyl)-1-isopropylazetidine-3-arboxamide]
